The test system of series [1] is uncomplicated falciparum malaria. The conditions noted are these: area of multi-drug resistance, Thai-Burmese border; cited from earlier work.
The conditions of series [2]: fatty meal (approximately 30 g of fat) versus low-fat meal; with artesunate 8 mg/kg and mefloquine 15 mg/kg over 12h; cited from earlier work.
Series [3] deals with Plasmodium falciparum malaria. The settings on record: India; number among the 89 subjects who completed the study; cited from earlier work.
For series [4] the following is noted: in vivo. As for the experimental part:
Treatment safety was assessed clinically as well as by measuring hematological indices and serum creatinine and hepatic transaminase concentrations. The sample size was computed assuming equal efficacy of the two treatments, and 606 patients (303 in each treatment arm) were enrolled over two consecutive malaria transmission seasons.

For the molecule `OC(c1cc(C(F)(F)F)nc2c(C(F)(F)F)cccc12)C1CCCCN1` (stereo not shown) [MQ, mefloquine], the “Overall failure rates by day 28” value in series [1] was 24%. For the same molecule, the bioavailability of mefloquine result in series [2] is “does not appear to increase the bioavailability”.

`CCN(CC)CCCC(C)Nc1ccnc2cc(Cl)ccc12` (stereo not shown) [chloroquine]: the treatment failures in series [3] is 46.

With artemether-lumefantrine, the “mild and transient elevation of transaminases” value in series [4] is reported as 0/72.

Values taken from patent EP1940519B1, “Pharmaceutical composition comprising artesunate, sulfamethoxypyrazine and pyrimethamine for use in the treatment of malaria within one day” (Dafra Pharma N.V., priority 2005, dated 2007).
